Experimental data: patent US20240226066A1, “CARDIOPROTECTION BY AUTOPHAGY INDUCTION AND METABOLIC REPROGRAMMING” (UNIVERSITE PARIS-SACLAY, priority 2021, published 2024)
Where two headings read alike, the source gives them in different places.

Columns and labels:
LC3II = assay: LC3 I/II conversion by western blot in RNVCs; assay type: cell-based, rat; settings: rapamycin positive control (3 μM)
Experimental: FIG. 4E: LC3-I/II protein levels in the RNVCs. Data are presented as mean±SEM with single-factor ANOVA, and multiple Sidak comparisons. *, p<0.05, **, p<0.01 with respect to DMSO.
The H9C2 cells and RNVCs were detached in LB containing: 50 mM Tris, 150 mM NaCl, 1 mM EDTA, 0.5% deoxycholate, 1% Triton X 100, 0.1% SDS (pH 8.0). The cells were collected and placed on ice for 30 minutes. The cells were then centrifuged at 2000 g for 20 minutes at for 4° C. The supernatant was transferred to a new tube and stored on ice. The protein concentration was determined by BCA assay. The protein samples were diluted with sample buffer (2× Laemmli, Sigma), mixed, and heated for 5 minutes at 95° C. […] The images were recorded with a gel imaging system (Bio Rad). […]
Next, the hypothesis that the compounds could protect cardiac cells by activating autophagy, a catabolic process conserved in evolution that involves the degradation of damaged cytoplasmic components, was formulated. […] Then, the cells were treated with the hits and with H2O2 for 2 hours and their survival was analyzed 4 hours later by measuring LDH release (FIGS. 4B, 4C). […] In order to confirm the induction of autophagy by another approach, the RNVCs were transfected with a GFP-LC3 plasmid and the formation of the autophagosome was monitored 24 hours later. […]

[1] = tested on: A549 lung cancer cell line; assay: Influence of hits on growth of A549 cancer cells (total LDH after lysis); assay type: cell-based; settings: 48 h
Experimental: The cells were cultured for 6 h in the presence or absence of the hits, and then for 42 h. Finally, the cells were lysed with lysis buffer and the amount of LDH was measured to evaluate the total cell growth.
A colorimetric assay was used to measure lactate dehydrogenase (LDH), a cytosolic enzyme which is released during permeabilization of the plasma membrane (Promega G1780). The assay was performed using cell culture supernatants obtained from H9C2 or RNVC (rat neonatal ventricular myocyte) cells and lysis buffer (LB) was used as a positive control for total cell lysis. The LDH release was measured by absorbance reading at 490 nm (Infinite spectrofluorimeter, Tecan).
The effect of the compounds was then evaluated on primary rat neonatal ventricular cardiomyocytes (RNVCs) using the LDH test and propidium iodide staining. […] The absence of proliferative effects of the compounds was also evaluated on the A549 lung cancer cell line for 48 h (FIG. 2C).

H9C2 cells [2] = assay: Seahorse XF Cell Mito stress test (OCR); assay type: cell-based, rat; settings: glucose and pyruvate as substrates, 6 h
Experimental: FIG. 8B: the H9c2 cells were treated with the compounds for 6 h, then a mitochondrial respiration stress test was carried out.
The XFe96 extracellular flow analyzer (Seahorse Biosciences, North Billerica, MA, USA) was used to measure the bioenergetic function of H9C2 cardiomyocytes. The H9C2 cells were seeded at 20 000 cells per well in XF96 cell culture microplates; all the pretreatments were carried out with serum-free cell culture medium. The Agilent Seahorse XF glycolysis stress test was performed to measure glycolytic function in the H9C2 cells; the extracellular acidification rate (ECAR) was measured sequentially by 3 injections, 10 mM glucose, 2 μM oligomycin and 50 mM 2-deoxy-D-glucose (2-DG). The Agilent Seahorse XF Cell Mito stress test measured key parameters of mitochondrial function by directly measuring the oxygen consumption rate (OCR) of the H9C2 cells. The test used the built-in injection ports on XF sensor cartridges to add respiration modulators into the cell well during the test in order to reveal key parameters of mitochondrial function. Oligomycin at 2 μM was injected first after the baseline measurements. Then 1 μM of […] (FCCP) was injected. The third injection corresponds to 0.5 μM of antimycin A, to stop mitochondrial respiration. The oxidation of the exogenous fatty acids was measured simultaneously using the XF palmitate-BSA FAO substrate kit with the mitochondrial stress test on XF cells. The substrate-limited medium is DMEM with 0.5 mM glucose, 1 mM GlutaMAX, 0.5 mM carnitine and 1% fetal calf serum. Carnitine was added freshly on the day of the change of medium. The FAO test medium contains 111 mM NaCl, 4.7 mM KCl, 1.25 mM CaCl2, 2 mM MgSO4, 1.2 mM NaH2PO4, supplemented with 2.5 mM glucose, 0.5 mM carnitine and 5 mM HEPES on the day of the test, adjusted to pH 7.4 at 37° C. The H9C2 cells were seeded at 20 000 cells per well in XF96 cell culture microplates. […]
(§1) Next, the energy metabolism was analyzed in real time using the Seahorse technology in H9C2 cells.

RNVCs [3] = assay: Mitochondrial ROS production with MitoSOX fluorescent probe; assay type: cell-based, rat; settings: 1 μM, 6 h
Experimental: FIG. 12: The RNVCs were treated with 0.1% DMSO, 3 μM rapamycin, 1 μM digitoxigenin, 1 μM digoxin, 1 μM minaprin, 1 μM VP331, 1 μM LOPA87, 10 μM SG6163F for 6 h, then the ROS production was stained with the MitoSOX fluorescent probe.
The RNVCs were treated with 0.01% DMSO, 3 μM rapamycin, […], 1 μM digoxin, 1 μM minaprine, 1 μM VP331, 1 μM LOPA87, 10 μM SG6163F in a serum-free cell culture medium for 6 hours. The contents (50 μg) of a MitoSOX™ mitochondrial superoxide indicator vial (ThermoFisher, M36008) were dissolved in 13 μl dimethyl sulfoxide (DMSO) to prepare a 5 mM MitoSOX™ reagent stock solution. Next, the 5 mM MitoSOX™ reagent stock solution in PBS was diluted to prepare a 5 μM working solution of MitoSOX™ reagent. After treatment, the cells were rinsed twice with hot PBS and then incubated with a MitoSOX reagent working solution for 10 minutes at 37° C. The cells were gently rinsed three times with hot PBS. Red fluorescence was detected with a Leica confocal microscope. Nuclear fluorescence was suppressed and mitochondrial fluorescence intensity was measured using ImageJ software.
ROSs are produced or accumulated as a by-product of mitochondrial activity metabolism. Thus, the ROSs may be a consequence of mitochondrial function or may reflect a defect in the mitochondrial antioxidant system.

RNVCs [4] = assay: Mitochondrial network and cell volume by confocal microscopy (Mitotracker, calcein-AM, IMARIS); assay type: cell-based, rat; settings: for effect on the mitochondrial network / number of mitochondria: 1 and 10 μM, 6 h
Experimental: FIG. 6. Effects on mitochondrial dynamics by fluorescence microscopy The RNVCs were treated with 1 μM hits (FIG. 6A) and 10 μM hits (FIG. 6B) for 6 h and the mitochondrial network was stained with 200 nM of Mitotracker. The mitochondrial network and individual mitochondria were then analyzed using a Leica confocal microscope and IMARIS software. Data are presented as mean±SEM with single-factor ANOVA, and multiple Sidak comparisons. *, p<0.05, **, p<0.01, ***, p<0.001 with respect to DMSO.
FIG. 11: following the treatment of the RNVCs with the compounds as indicated, the cell volume was stained with 4 μM of calcein-AM. The cell volume was then analyzed using the IMARIS software.
Confocal microscopy. On day 0, 4×10^5 neonatal cardiomyocytes were plated overnight on laminin-coated 35 mm culture dishes (10 μg/ml). On day 1, the cells were treated with various compounds at 1 or 10 μM for 6 hours. The cells were incubated with Mitotracker Red 580 at 200 nM for 20 minutes at 37° C., then 4 μM of calcein (Calcein AM, Life Technologies, St Aubin, France) for 10 minutes at 37° C. The images were acquired with a Leica confocal microscope (SP5) (Mannheim, Germany). The mitochondrial network and the 3D model of cell volume were reconstructed using the IMARIS software (Bitplane Company, Zurich, Switzerland); therefore the cell volume, mitochondrial number and volume were analyzed.
Due to the importance of mitochondria and reactive oxygen species (ROS) levels in the fate of cardiomyocyte cells, the hypothesis that the compounds could impact the mitochondrial network was explored. Following treatment of the RNVCs with the compounds tested, the mitochondrial network was stained with 200 nM of Mitotracker and the cell volume with 4 μM of calcein-AM. Thus, the mitochondrial network and the individual mitochondria were then analyzed using the IMARIS software.

hERG potassium channel = target: T1, hERG potassium channel (Homo sapiens, UniProt Q12809); assay: hERG channel binding assay ([3H]dofetilide displacement); settings: for inhibition at 10 µM: human, probe [3H]dofetilide
T1 construct: Eurofins
Experimental: The evaluation of the binding of the compounds to the human hERG potassium channel was carried out as described previously (Eurofins).
Since the blocking of the human potassium channel hERG channel may be responsible for cardiac fibrillation leading to cardiac arrest and death of the patient, the binding of the 3 molecules SG6163F, VP331 and LOPA87 to this receptor was evaluated.

H9C2 cells [5] = assay: Exogenous fatty acid oxidation (XF palmitate-BSA FAO substrate with mito stress test); assay type: cell-based, rat; settings: fatty acids as substrate
Experimental: FIG. 8C: the oxidation of the exogenous fatty acids was measured simultaneously using the XF palmitate-BSA FAO substrate kit with the mito stress test on XF cells. Before starting the test, 30 μL of XF palmitate-BSA CAM or BSA control substrate were added to the appropriate wells.
The XFe96 extracellular flow analyzer (Seahorse Biosciences, North Billerica, MA, USA) was used to measure the bioenergetic function of H9C2 cardiomyocytes. The H9C2 cells were seeded at 20 000 cells per well in XF96 cell culture microplates; all the pretreatments were carried out with serum-free cell culture medium. The Agilent Seahorse XF glycolysis stress test was performed to measure glycolytic function in the H9C2 cells; the extracellular acidification rate (ECAR) was measured sequentially by 3 injections, 10 mM glucose, 2 μM oligomycin and 50 mM 2-deoxy-D-glucose (2-DG). The Agilent Seahorse XF Cell Mito stress test measured key parameters of mitochondrial function by directly measuring the oxygen consumption rate (OCR) of the H9C2 cells. […] The oxidation of the exogenous fatty acids was measured simultaneously using the XF palmitate-BSA FAO substrate kit with the mitochondrial stress test on XF cells. […]
as §1

T1 sequence (Q12809 whole entry): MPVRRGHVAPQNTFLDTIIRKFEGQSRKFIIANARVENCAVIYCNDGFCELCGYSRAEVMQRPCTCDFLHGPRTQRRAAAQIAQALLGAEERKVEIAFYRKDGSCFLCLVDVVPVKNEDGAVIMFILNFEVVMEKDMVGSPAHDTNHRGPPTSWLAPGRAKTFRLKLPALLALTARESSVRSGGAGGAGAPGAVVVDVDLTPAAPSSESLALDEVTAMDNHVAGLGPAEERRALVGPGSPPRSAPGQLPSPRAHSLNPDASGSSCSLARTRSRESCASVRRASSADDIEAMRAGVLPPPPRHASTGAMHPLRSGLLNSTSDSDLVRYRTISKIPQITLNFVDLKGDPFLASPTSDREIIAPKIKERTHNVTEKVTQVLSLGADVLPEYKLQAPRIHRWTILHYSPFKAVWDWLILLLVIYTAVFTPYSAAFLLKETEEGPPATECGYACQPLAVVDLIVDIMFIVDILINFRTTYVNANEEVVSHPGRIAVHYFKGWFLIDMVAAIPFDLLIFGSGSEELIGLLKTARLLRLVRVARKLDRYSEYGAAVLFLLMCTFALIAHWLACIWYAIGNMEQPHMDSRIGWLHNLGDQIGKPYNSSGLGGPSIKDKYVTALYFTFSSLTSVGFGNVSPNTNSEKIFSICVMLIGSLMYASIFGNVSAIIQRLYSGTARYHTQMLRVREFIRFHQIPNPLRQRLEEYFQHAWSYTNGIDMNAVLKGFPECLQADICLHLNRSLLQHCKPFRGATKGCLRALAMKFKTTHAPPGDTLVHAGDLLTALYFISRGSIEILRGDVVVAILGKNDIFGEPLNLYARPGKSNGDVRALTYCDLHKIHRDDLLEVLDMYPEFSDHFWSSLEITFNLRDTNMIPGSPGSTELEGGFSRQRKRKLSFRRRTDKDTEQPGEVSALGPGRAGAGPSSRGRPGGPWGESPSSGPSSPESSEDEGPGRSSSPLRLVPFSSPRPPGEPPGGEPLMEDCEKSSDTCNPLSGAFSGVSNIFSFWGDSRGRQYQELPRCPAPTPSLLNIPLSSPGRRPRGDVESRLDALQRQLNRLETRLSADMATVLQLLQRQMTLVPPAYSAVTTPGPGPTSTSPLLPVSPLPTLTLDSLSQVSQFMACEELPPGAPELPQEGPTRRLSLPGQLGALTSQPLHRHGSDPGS

CO[C@H]1C[C@@H]2CC[C@@H](C)[C@@](O)(O2)C(=O)C(=O)N2CCCC[C@H]2C(=O)O[C@H]([C@H](C)C[C@@H]2CC[C@@H](O)[C@H](OC)C2)CC(=O)[C@H](C)/C=C(\C)[C@@H](O)[C@@H](OC)C(=O)[C@H](C)C[C@H](C)/C=C/C=C/C=C/1C [rapamycin, reference compound]
increase in level of expression of LC3II (LC3II): > 1.4 fold

Cc1cc(-c2ccccc2)nnc1NCCN1CCOCC1 [minaprine]
effect on A549 cell growth [1]: significantly reduced cell growth and induced cell death
ATP production by oxidative phosphorylation (OXPHOS) (H9C2 cells [2]): improved ATP production by oxidative phosphorylation
local level of mitochondrial superoxide anion (RNVCs [3]): induced an elevation
mitochondrial mass (RNVCs [4]; 10 μM): decreased the mitochondrial mass
effect on the mitochondrial network (RNVCs [4]): no effect
number of mitochondria (RNVCs [4]): no effect

COc1ccc(C)cc1/C=N/[C@@H]1C[C@@H]2C[C@H]([C@H]1C)C2(C)C [VP331]
effect on A549 cell growth [1]: no proliferative effect
inhibition at 10 µM (hERG potassium channel; inhibition of tritiated dofetilide binding, only values >50% considered effective, read-out: % inhibit 1st assay): -4%
inhibition at 10 µM (hERG potassium channel; inhibition of tritiated dofetilide binding, only values >50% considered effective, read-out: % inhibit 2nd assay): 5.4%
inhibition at 10 µM (hERG potassium channel; mean of two independent measurements, read-out: % inhibit Mean): 0.7%
binding to the hERG channel (hERG potassium channel; inhibition of specific binding of [3H]dofetilide in vitro): negligible
oxidative phosphorylation (H9C2 cells [5]): improved oxidative phosphorylation
local level of mitochondrial superoxide anion (RNVCs [3]): induced an elevation
effect on the mitochondrial network (RNVCs [4]): no effect
number of mitochondria (RNVCs [4]): no effect
